Data taken from patent publication US20170073690A1, “ANTAGONISTS OF SLC38A9 AND THEIR USE IN THERAPY” (CEMM - Forschungzentrum Fuer Molekulare Medizin GMBH, priority 2014, published 2017).

Key:
[1] = biological target: T1, recombinant human SLC38A9 (Homo sapiens, UniProt Q8NBW4); test: inhibition of [3H]-glutamine uptake in SLC38A9 proteoliposomes; type: biochemical; settings: for competition for glutamine transport (inhibition of [3H]-glutamine uptake): added together with 10 μM [3H]-glutamine, transport at 60 min, MeAIB 1 mM, FIG. 3D, FIG. 10B; for transport capacity of SLC38A9 for amino acids (transport preference): inferred from binding preference, FIG. 3d; for binding capacity of SLC38A9 for amino acids (binding preference): ranking read from FIG. 3d
T1 construct: made in house; host or cells: E. coli Lemo21(DE3)pLysS
T1 sequence (Q8NBW4 1-561): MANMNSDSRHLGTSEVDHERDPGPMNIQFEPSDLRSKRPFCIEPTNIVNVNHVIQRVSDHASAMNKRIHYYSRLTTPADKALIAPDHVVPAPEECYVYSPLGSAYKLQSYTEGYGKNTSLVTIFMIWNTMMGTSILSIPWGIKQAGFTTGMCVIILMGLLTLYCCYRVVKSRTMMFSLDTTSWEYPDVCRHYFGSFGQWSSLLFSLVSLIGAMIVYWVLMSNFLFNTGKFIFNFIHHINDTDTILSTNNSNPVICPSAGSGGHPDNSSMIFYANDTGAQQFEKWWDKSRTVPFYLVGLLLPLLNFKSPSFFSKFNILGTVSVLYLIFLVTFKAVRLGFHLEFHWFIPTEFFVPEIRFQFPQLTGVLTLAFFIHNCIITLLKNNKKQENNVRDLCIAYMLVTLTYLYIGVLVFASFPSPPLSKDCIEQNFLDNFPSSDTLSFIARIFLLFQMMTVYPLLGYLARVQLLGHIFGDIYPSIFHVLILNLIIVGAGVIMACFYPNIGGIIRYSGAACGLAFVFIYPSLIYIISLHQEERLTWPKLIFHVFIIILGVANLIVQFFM
Experimental: (§1) a, Orientation of SLC38A9 in proteoliposomes. After purification on Ni-chelating chromatography His-SLC38A9 was incubated overnight at 37° C. in absence or in presence of 1 U thrombin. Immunoblot using anti-His or anti-SLC38A9 antibody. b, Proteoliposomes reconstituted with SLC38A9 were centrifuged, resuspended in isosmotic buffer, incubated overnight at 37° C. with 1 U thrombin, solubilized with SDS Immunoblot using anti-His or anti-SLC38A9 antibody. c, Time course of glutamine uptake by SLC38A9 in proteoliposomes reconstituted with purified SLC38A9 or with control empty vector protein. The uptake of 10 μM [^3H]-glutamine was measured at different time intervals. Transport was stopped as described in Materials and Methods. Values represent means of specific transport ±s.d. from 8 different experiments. Significance was estimated by Student's t test (*P<0.01 or **P<0.001). d, Inhibition of the [^3H]-glutamine uptake in proteoliposomes. The indicated amino acids were added together with 10 μM [^3H]-glutamine Transport was measured at 60 min Values represent means of percent residual activity with respect to control (without added inhibitor) ±s.d. from 3 independent experiments. Significance was estimated by Student's t test (*P<0.01 or **P<0.001). e, Time course of glutamine efflux from proteoliposomes reconstituted with purified SLC38A9. Proteoliposomes were incubated with external 10 μM [^3H]-glutamine After 120 min the residual external radioactivity was removed by gel-filtration and the time course of [^3H]-glutamine efflux was measured as for the uptake (see FIG. 3 c). Values represent means of specific transport ±s.d. from 3 different experiments. f and g. HEK293T cells were transfected with the indicated tagged RAGA (0 or RAGB (g) and RAGC constructs or empty vector (−). Anti-HA immunoprecipitates and cell extracts were treated with PNGase and analysed by immunoblot with the indicated antibodies. Mutations are the following: RAGA: Q66L and T21N; RAGB: Q99L and T54N; RAGC: S75N and Q120N
a, Purification of SLC38A9. Lanes represent empty vector control and SLC38A9 expressed in E. coli and purified on Ni-chelating chromatography Immunoblot of the same fractions using anti-His antibody or anti-SLC38A9 are shown. b, Inhibition of the [^3H]-glutamine uptake in proteoliposomes. 1 mM MeAIB (α-(methylamino)isobutyric acid) was added together with 10 μM [^3H]-glutamine Transport was measured at 60 min. Values represent means of percent residual activity with respect to control (without added inhibitor) ±s.d. from 3 independent experiments. Significance was estimated by Student's t test (*P<0.01 or **P<0.001). c, Uptake of the indicated [3H]-labelled amino acids (10 μM) by SLC38A9 in proteoliposomes measured at 60 min. Values represent means of percent in respect to glutamine transport measured in the same experiment ±s.d. from three independent experiments. Significance was estimated by Student's t test (*P<0.01 or **P<0.001). d, Time course of glutamine uptake by SLC38A9 in proteoliposomes reconstituted with the purified protein fraction. The uptake of 10 μM [^3H]-glutamine was measured at different time intervals, in the presence of the indicated intraliposomal sodium concentrations. Transport was stopped as described in Materials and Methods and calculated by subtracting the radioactivity associated to proteoliposomes reconstituted with the empty vector fraction. Values represent means of specific transport ±s.d. from 3 different experiments. e, Effect of pH on the reconstituted SLC38A9. Reconstitution was performed as described in Materials and Methods except that 20 mM Hepes/Tris at the indicated pH was used. Transport was started by adding 10 μM [^3H]-glutamine in 20 mM Hepes/Tris buffer at the indicated pH to proteoliposomes and stopped at 30 min. Results are means of specific transport rate ±s.d. from 3 different experiments f-g HEK293T cells were starved in medium without amino acids and serum for the indicated times. […]

[2] = biological target: T1, recombinant human SLC38A9; test: uptake and efflux of [3H]-labelled amino acids by SLC38A9 in proteoliposomes; type: biochemical; settings: for direct transport of [3H]-labelled amino acid by SLC38A9: 10 μM labelled amino acid, 60 min, relative to glutamine transport, FIG. 10C
Experimental: as §1, with “Values represent means of specific transport ±s.d. from 3 different experiments. f and g.” left out
a, Purification of SLC38A9. […] 1 mM MeAIB (α-(methylamino)isobutyric acid) was added together with 10 μM [^3H]-glutamine Transport was measured at 60 min. […] Significance was estimated by Student's t test (*P<0.01 or **P<0.001). c, Uptake of the indicated [3H]-labelled amino acids (10 μM) by SLC38A9 in proteoliposomes measured at 60 min. Values represent means of percent in respect to glutamine transport measured in the same experiment ±s.d. from three independent experiments. […] The uptake of 10 μM [^3H]-glutamine was measured at different time intervals, in the presence of the indicated intraliposomal sodium concentrations. Transport was stopped as described in Materials and Methods and calculated by subtracting the radioactivity associated to proteoliposomes reconstituted with the empty vector fraction. […]

[3] = system: mTORC1; test: amino acid-induced mTORC1 activation in HEK293T (immunoblot of phosphorylated S6 kinase, S6, ULK1); type: cell-based, human; settings: lentivirus-encoded shRNA vs shGFP, starved 50 min, amino acids 10 or 20 min, FIG. 4A
Experimental: (§2) After 72 h, cells were treated as in a.d, HeLa were transfected with the indicated siRNA. After 72 h, cells were starved for 50 min in medium without amino acids and serum and then stimulated with amino acids and insulin (1 uM). Cell lysates were analysed by immunoblot with antibodies against phosphorylated threonine 389 S6 kinase, phosphorylated S6 and total S6 kinase e, Model of Sentor/SLC38A9 as part of the lysosomal amino acid-sensing machinery
[…]. HEK293T cells were co-transfected with packaging plasmids and the shRNA-encoding plasmids. Cells were washed 16 h after transfection. Virus-containing supernatants were collected 24 h after washing, filtered and used for infection. After infection, HEK293T cells were selected with puromycin (4 μg/ml). For siRNA-mediated knockdown, HEK293T cells were transfected with HiPerfect (Qiagen) with 60 nM of siRNA pool. After 72 h cells were subjected to amino acid stimulation as described. ON-TARGETplus SMARTpool against SLC38A9 (L-007337-02-0005, Target sequences: […] (SEQ ID NO: 77), […] (SEQ ID NO: 78), […] (SEQ ID NO: 79), […] (SEQ ID NO: 80)), LAMTOR1 (L-020916-02-0010, Target sequences: […] (SEQ ID NO: 81), […] (SEQ ID NO: 82), […] (SEQ ID NO: 83), […] (SEQ ID NO: 84)) and Non-targeting pool (D-001810-10-05) were from ThermoScientific. […]

[4] = system: mTORC1; test: cycloheximide-induced mTORC1 activation in HEK293T (immunoblot); type: cell-based, human; settings: shRNA, starved 50 min, cycloheximide 25 μg/ml 10 or 20 min, FIG. 4B
Experimental: as §2, with “After 72 h, cells were starved for 50 min in medium without amino acids and serum and then stimulated with amino acids and insulin (1 uM).” left out
[…]. HEK293T cells were co-transfected with packaging plasmids and the shRNA-encoding plasmids. Cells were washed 16 h after transfection. Virus-containing supernatants were collected 24 h after washing, filtered and used for infection. After infection, HEK293T cells were selected with puromycin (4 μg/ml). For siRNA-mediated knockdown, HEK293T cells were transfected with HiPerfect (Qiagen) with 60 nM of siRNA pool. After 72 h cells were subjected to amino acid stimulation as described. ON-TARGETplus SMARTpool against SLC38A9 (L-007337-02-0005, Target sequences: […] (SEQ ID NO: 77), […] (SEQ ID NO: 78), […] (SEQ ID NO: 79), […] (SEQ ID NO: 80)), LAMTOR1 (L-020916-02-0010, Target sequences: […] (SEQ ID NO: 81), […] (SEQ ID NO: 82), […] (SEQ ID NO: 83), […] (SEQ ID NO: 84)) and Non-targeting pool (D-001810-10-05) were from ThermoScientific.
HEK293T cells were washed with PBS and incubated in amino acid-free RPMI for 50 min Cell were then stimulated for 10 or 20 min by the addition of RPMI containing a two time concentrated solution of amino acids. […]

[5] = system: HEK293T cells; test: cell size measurement (nucleus diameter, automated microscopy); type: cell-based, human; settings: shRNA knockdown vs shGFP, nucleus diameter as proxy, FIG. 5C
Experimental: (§3) a, Table of SLCs belonging to amino acid transporter families robustly expressed in HEK293 and K562 cells as monitored by RNAseq. SLC members of amino acid transporter-containing families^16 and expressed (FPKM>0.5) in both cell lines were ranked according to their expression level. […] Sparse and interphase cells were selected using image analysis and machine learning, and nucleus diameter (μm) was used as robust proxy for cell size^33. […] 10^5 cells were seeded and counted every 24 h. Mean values ±s.d. from triplicates e. HEK293 Flp-In TREx cells inducibly expressing SLC38A9 were treated or not with doxycycline (Dox) for 24 h. Where indicated, cell lysates were treated with PNGase (1 hour, 37° C.) and analysed by immunoblot (IB)
Images were taken by automated microscopy using the PerkinElmer Operetta with 20× magnification in confocal mode. Images were analysed using CellProfiler (www at cellprofiler.org), CellClassifier (http at www.pelkmanslab.org/?page_id=63), Population Context measurement code (https at www.pelkmanslab.org/?page_id=1150) and custom Matlab code written specifically for this study. […] We used the typical nucleus diameter (i.e. the diameter of a circle with the same area as that measured for each nucleus) as a robust proxy for cell size^6. […]

[6] = system: HEK293T cells; test: cell proliferation measurement (cell counting every 24 h); type: cell-based, human; settings: shRNA knockdown vs shGFP, FIG. 5D
Experimental: as §3

CNC(C)(C)C(=O)O [MeAIB, α-(methylamino)isobutyric acid]
competition for glutamine transport (inhibition of [3H]-glutamine uptake) [1]: had not effect

NC(=O)C[C@H](N)C(=O)O [[3H]asparagine, asparagine]
direct transport of [3H]-labelled amino acid by SLC38A9 [2]: competence

C[C@H](N)C(=O)O [alanine]
transport capacity of SLC38A9 for amino acids (transport preference) [1]: lowest transport capacity
binding capacity of SLC38A9 for amino acids (binding preference) [1]: lowest binding capacity

N=C(N)NCCC[C@H](N)C(=O)O [arginine]
competition for glutamine transport (inhibition of [3H]-glutamine uptake) [1]: low ability
direct transport of [3H]-labelled amino acid by SLC38A9 [2]: competence

N[C@@H](CS)C(=O)O [cysteine]
transport capacity of SLC38A9 for amino acids (transport preference) [1]: highest transport capacity
binding capacity of SLC38A9 for amino acids (binding preference) [1]: highest binding capacity

NC(=O)CC[C@H](N)C(=O)O [glutamine]
transport capacity of SLC38A9 for amino acids (transport preference) [1]: highest transport capacity
binding capacity of SLC38A9 for amino acids (binding preference) [1]: highest binding capacity
initial rate of glutamine transport (uptake) ([2]; 10 μM glutamine, time course, proteoliposomes, 25° C., pH 6.5): 0.42±0.10 nmol per mg of protein per minute
rate of [3H]-glutamine efflux from proteoliposomes ([2]; loaded with external 10 μM [3H]-glutamine for 120 min, FIG. 3E): 1.7 ± 0.30 nmol/min/mg

CCGGGCCUUGACAACAGUUCUAUAUCUCGAGAUAUAGAACUGUUGUCAAGGCUUUUUUG (chemistry not given here; listed as Homo sapiens) [shRNA, shRNA-encoding pLKO.1 targeting SLC38A9 (ThermoFisher), lentivirally delivered; targets nt 1931-1951 of human SLC38A9 mRNA]
amino acid-induced mTORC1 activation [3]: strong reduction
cycloheximide-induced mTORC1 activation [4]: impaired
cell size [5]: clear reduction
ability of the targeted cells to proliferate [6]: impairment
